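These data come from cells grown in 96-well plates and exposed to compound for 48 hours at five concentrations. GI50 marks 50% less growth. TGI marks complete inhibition of growth.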
Tests used:
Assay in all cases: DTP human tumour cell line panel, 48 h
BT-549 breast = tested on: BT-549 breast
HCC-2998 colon = tested on: HCC-2998 colon
NCI-H226 lung = tested on: NCI-H226 lung
RPMI-8226 leukemia = tested on: RPMI-8226 leukemia
SW-620 colon = tested on: SW-620 colon
ACHN renal = tested on: ACHN renal
COLO 205 colon = tested on: COLO 205 colon
OVCAR-3 ovarian = tested on: OVCAR-3 ovarian
M14 melanoma = tested on: M14 melanoma
CAKI-1 renal = tested on: CAKI-1 renal
HOP-62 NSCLC = tested on: HOP-62 NSCLC
T-47D breast = tested on: T-47D breast
HT29 colon = tested on: HT29 colon
OVCAR-8 ovarian = tested on: OVCAR-8 ovarian
A549 NSCLC = tested on: A549 NSCLC
MALME-3M melanoma = tested on: MALME-3M melanoma
HCT-15 colon = tested on: HCT-15 colon
SN12C renal = tested on: SN12C renal
TK-10 renal = tested on: TK-10 renal
SNB-19 CNS = tested on: SNB-19 CNS
SK-OV-3 ovarian = tested on: SK-OV-3 ovarian
MDA-MB-435 = tested on: MDA-MB-435
UACC-62 melanoma = tested on: UACC-62 melanoma
CCRF-CEM leukemia = tested on: CCRF-CEM leukemia
SF-268 CNS = tested on: SF-268 CNS
NCI-H23 lung = tested on: NCI-H23 lung
OVCAR-4 ovarian = tested on: OVCAR-4 ovarian
KM12 colon = tested on: KM12 colon
RXF 393 renal = tested on: RXF 393 renal
SK-MEL-28 melanoma = tested on: SK-MEL-28 melanoma
UO-31 renal = tested on: UO-31 renal
EKVX NSCLC = tested on: EKVX NSCLC
786-0 renal = tested on: 786-0 renal
MCF7 breast = tested on: MCF7 breast
HOP-92 NSCLC = tested on: HOP-92 NSCLC
IGROV1 ovarian = tested on: IGROV1 ovarian
SF-539 CNS = tested on: SF-539 CNS
NCI-H460 lung = tested on: NCI-H460 lung
HL-60(TB) leukemia = tested on: HL-60(TB) leukemia
LOX IMVI melanoma = tested on: LOX IMVI melanoma
DU-145 prostate = tested on: DU-145 prostate
SR leukemia = tested on: SR leukemia
U251 CNS = tested on: U251 CNS
A498 renal = tested on: A498 renal
HS 578T breast = tested on: HS 578T breast
SF-295 CNS = tested on: SF-295 CNS
MDA-MB-231 breast = tested on: MDA-MB-231 breast
OVCAR-5 ovarian = tested on: OVCAR-5 ovarian
SK-MEL-2 melanoma = tested on: SK-MEL-2 melanoma
MOLT-4 leukemia = tested on: MOLT-4 leukemia
PC-3 prostate = tested on: PC-3 prostate
SNB-75 CNS = tested on: SNB-75 CNS
SK-MEL-5 melanoma = tested on: SK-MEL-5 melanoma
NCI-H522 lung = tested on: NCI-H522 lung
UACC-257 melanoma = tested on: UACC-257 melanoma
HCT-116 colon = tested on: HCT-116 colon
NCI/ADR-RES ovarian = tested on: NCI/ADR-RES ovarian
K-562 leukemia = tested on: K-562 leukemia

## O=C(Nc1ccc(Oc2ccc3nc(NC(=O)c4ccco4)[nH]c3c2)cc1)Nc1cc(C(F)(F)F)ccc1F
BT-549 breast
  GI50: 2.08 µM
  TGI: 6.05 µM
HCC-2998 colon
  GI50: 2.44 µM
  TGI: > 20.1 µM
NCI-H226 lung
  GI50: 0.28 µM
  TGI: 4.02 µM
RPMI-8226 leukemia
  GI50: 2.17 µM
  TGI: 10.6 µM
SW-620 colon
  GI50: 1.25 µM
  TGI: > 17.8 µM
ACHN renal
  GI50: 1.28 µM
  TGI: 6.08 µM
COLO 205 colon
  GI50: 3.02 µM
  TGI: 11.4 µM
OVCAR-3 ovarian
  GI50: 2.9 µM
  TGI: 7.22 µM
M14 melanoma
  GI50: 0.786 µM
  TGI: 5.16 µM
CAKI-1 renal
  GI50: 1.81 µM
  TGI: > 14.4 µM
HOP-62 NSCLC
  GI50: 3.44 µM
  TGI: 10.7 µM
T-47D breast
  GI50: 2 µM
  TGI: 8.19 µM
HT29 colon
  GI50: 1.18 µM
  TGI: 6.09 µM
OVCAR-8 ovarian
  GI50: 1.26 µM
  TGI: 6.92 µM
A549 NSCLC
  GI50: 3.19 µM
  TGI: 11.8 µM
MALME-3M melanoma
  GI50: 0.699 µM
  TGI: 5.31 µM
HCT-15 colon
  GI50: 1.33 µM
  TGI: > 17.2 µM
SN12C renal
  GI50: 0.89 µM
  TGI: 10.9 µM
TK-10 renal
  GI50: 2.57 µM
  TGI: 12.8 µM
SNB-19 CNS
  GI50: 6.95 µM
  TGI: > 25 µM
SK-OV-3 ovarian
  GI50: 3.44 µM
  TGI: 12.1 µM
MDA-MB-435
  GI50: 0.973 µM
  TGI: 7.71 µM
UACC-62 melanoma
  GI50: 0.844 µM
  TGI: 5.48 µM
CCRF-CEM leukemia
  GI50: 1.85 µM
  TGI: > 25 µM
SF-268 CNS
  GI50: 2.55 µM
  TGI: 14.1 µM
NCI-H23 lung
  GI50: 0.852 µM
  TGI: 9.08 µM
OVCAR-4 ovarian
  GI50: 1.25 µM
  TGI: > 13.8 µM
KM12 colon
  GI50: 0.0178 µM
  TGI: 4.31 µM
RXF 393 renal
  GI50: 1.28 µM
  TGI: 5.13 µM
SK-MEL-28 melanoma
  GI50: 2.08 µM
  TGI: 7.04 µM
UO-31 renal
  GI50: 0.874 µM
  TGI: 5.27 µM
EKVX NSCLC
  GI50: 1.75 µM
  TGI: > 25 µM
786-0 renal
  GI50: 3.55 µM
  TGI: 10.4 µM
MCF7 breast
  GI50: 2.94 µM
  TGI: 15.6 µM
HOP-92 NSCLC
  GI50: 0.234 µM
  TGI: 5.74 µM
IGROV1 ovarian
  GI50: 1.23 µM
  TGI: 10.2 µM
SF-539 CNS
  GI50: 0.943 µM
  TGI: 5.69 µM
NCI-H460 lung
  GI50: 1.35 µM
  TGI: 6.85 µM
HL-60(TB) leukemia
  GI50: 0.823 µM
  TGI: 7.07 µM
LOX IMVI melanoma
  GI50: 0.537 µM
  TGI: 6.04 µM
DU-145 prostate
  GI50: 2.92 µM
  TGI: 10.6 µM
SR leukemia
  GI50: 0.964 µM
  TGI: 7.36 µM
U251 CNS
  GI50: 3.33 µM
  TGI: > 15.3 µM
A498 renal
  GI50: 0.929 µM
  TGI: 5.4 µM
HS 578T breast
  GI50: 0.446 µM
  TGI: 3.42 µM
SF-295 CNS
  GI50: 1.76 µM
  TGI: > 12.2 µM
MDA-MB-231 breast
  GI50: 1.09 µM
  TGI: 5.77 µM
OVCAR-5 ovarian
  GI50: 1.49 µM
  TGI: 8.63 µM
SK-MEL-2 melanoma
  GI50: 0.668 µM
  TGI: 4.37 µM
MOLT-4 leukemia
  GI50: 2.21 µM
  TGI: 15.7 µM
PC-3 prostate
  GI50: 1.49 µM
  TGI: 8.59 µM
SNB-75 CNS
  GI50: 2.39 µM
  TGI: 10.2 µM
SK-MEL-5 melanoma
  GI50: 1.16 µM
  TGI: 4.74 µM
NCI-H522 lung
  GI50: 3.03 µM
  TGI: 9.55 µM
UACC-257 melanoma
  GI50: 2.25 µM
  TGI: 8.74 µM
HCT-116 colon
  GI50: 0.437 µM
  TGI: 4.57 µM
NCI/ADR-RES ovarian
  GI50: 1.71 µM
  TGI: 11.4 µM
K-562 leukemia
  GI50: 0.0122 µM
  TGI: 6.11 µM

## C#Cc1cccc(Nc2ncnc3cc(NC(=O)CCl)ccc23)c1
BT-549 breast
  GI50: 3.23 µM
  TGI: 6.99 µM
HCC-2998 colon
  GI50: 4.16 µM
  TGI: 8.46 µM
NCI-H226 lung
  GI50: 4.72 µM
  TGI: 11.6 µM
RPMI-8226 leukemia
  GI50: 1.26 µM
  TGI: 6.15 µM
SW-620 colon
  GI50: 0.832 µM
  TGI: 3.08 µM
ACHN renal
  GI50: 2.14 µM
  TGI: 5.66 µM
COLO 205 colon
  GI50: 3.62 µM
  TGI: 7.45 µM
OVCAR-3 ovarian
  GI50: 1.37 µM
  TGI: 5.42 µM
M14 melanoma
  GI50: 2.56 µM
  TGI: 6.4 µM
CAKI-1 renal
  GI50: 1.78 µM
  TGI: 6.06 µM
HOP-62 NSCLC
  GI50: 3.22 µM
  TGI: 6.77 µM
T-47D breast
  GI50: 2.43 µM
  TGI: 5.93 µM
HT29 colon
  GI50: 1.06 µM
  TGI: 5.74 µM
OVCAR-8 ovarian
  GI50: 1.61 µM
  TGI: 6.58 µM
A549 NSCLC
  GI50: 3.59 µM
  TGI: 7.93 µM
MALME-3M melanoma
  GI50: 2.8 µM
  TGI: 6.65 µM
HCT-15 colon
  GI50: 0.743 µM
  TGI: 3.42 µM
SN12C renal
  GI50: 1.29 µM
  TGI: 4.81 µM
TK-10 renal
  GI50: 1.86 µM
  TGI: 5.98 µM
SNB-19 CNS
  GI50: 2.96 µM
  TGI: 6.03 µM
SK-OV-3 ovarian
  GI50: 3.5 µM
  TGI: 11.5 µM
MDA-MB-435
  GI50: 1.27 µM
  TGI: 5.17 µM
UACC-62 melanoma
  GI50: 1.53 µM
  TGI: 4.99 µM
CCRF-CEM leukemia
  GI50: 0.626 µM
  TGI: 2.7 µM
SF-268 CNS
  GI50: 3.3 µM
  TGI: 8.55 µM
NCI-H23 lung
  GI50: 3.26 µM
  TGI: 8.01 µM
OVCAR-4 ovarian
  GI50: 2.16 µM
  TGI: 6.95 µM
KM12 colon
  GI50: 3.29 µM
  TGI: 7.13 µM
RXF 393 renal
  GI50: 4.03 µM
  TGI: 7.78 µM
SK-MEL-28 melanoma
  GI50: 3.67 µM
  TGI: 7.34 µM
UO-31 renal
  GI50: 2.55 µM
  TGI: 5.6 µM
EKVX NSCLC
  GI50: 2.5 µM
  TGI: 7.01 µM
786-0 renal
  GI50: 1.07 µM
  TGI: 5.53 µM
MCF7 breast
  GI50: 0.961 µM
  TGI: 4.73 µM
HOP-92 NSCLC
  GI50: 3.56 µM
  TGI: 8.09 µM
IGROV1 ovarian
  GI50: 1.43 µM
  TGI: 6.84 µM
SF-539 CNS
  GI50: 3.48 µM
  TGI: 6.82 µM
NCI-H460 lung
  GI50: 2.89 µM
  TGI: 6.63 µM
HL-60(TB) leukemia
  GI50: 4.45 µM
  TGI: 11.3 µM
LOX IMVI melanoma
  GI50: 0.74 µM
  TGI: 2.97 µM
DU-145 prostate
  GI50: 2.8 µM
  TGI: 5.91 µM
SR leukemia
  GI50: 0.535 µM
  TGI: 4.08 µM
U251 CNS
  GI50: 0.789 µM
  TGI: 2.92 µM
A498 renal
  GI50: 2.77 µM
  TGI: 7.28 µM
HS 578T breast
  GI50: 3.71 µM
  TGI: 14.2 µM
SF-295 CNS
  GI50: 3.51 µM
  TGI: 6.95 µM
MDA-MB-231 breast
  GI50: 3.35 µM
  TGI: 7.28 µM
OVCAR-5 ovarian
  GI50: 1.12 µM
  TGI: 5.63 µM
SK-MEL-2 melanoma
  GI50: 3.82 µM
  TGI: 7.77 µM
MOLT-4 leukemia
  GI50: 0.739 µM
  TGI: 3.45 µM
PC-3 prostate
  GI50: 3.69 µM
  TGI: 8.33 µM
SNB-75 CNS
  GI50: 1.53 µM
  TGI: 5.01 µM
SK-MEL-5 melanoma
  GI50: 3.37 µM
  TGI: 6.71 µM
NCI-H522 lung
  GI50: 0.414 µM
  TGI: 0.894 µM
UACC-257 melanoma
  GI50: 3.76 µM
  TGI: 8.12 µM
HCT-116 colon
  GI50: 1.19 µM
  TGI: 4.15 µM
NCI/ADR-RES ovarian
  GI50: 4.65 µM
  TGI: 17.2 µM
K-562 leukemia
  GI50: 0.802 µM
  TGI: 25 µM
